What was measured:
YSK4 = target: T1, YSK4 (Homo sapiens, UniProt Q56UN5); test: KINOMEscan at 1 μM, YSK4; format: binding; conditions: 1000 nM, read-out: Percent Control
T1 construct: purchased Eurofins DiscoverX KINOMEscan
Text: (§1) Supplement cells-12-00287-s001.zip/File S2. KinomeScan data for the CAMKK2 probe and negative control.xlsx, sheet "SGC-CAMKK2-1N" | column: Percent Control

[1] = target: T2, ABL1(Y253F)-phosphorylated (Homo sapiens, UniProt P00519, Y253F); test: KINOMEscan at 1 μM, ABL1(Y253F)-phosphorylated; format: binding; conditions: 1000 nM, read-out: Percent Control
T2 construct: purchased Eurofins DiscoverX KINOMEscan
Text: as §1

T1 sequence (Q56UN5 whole entry): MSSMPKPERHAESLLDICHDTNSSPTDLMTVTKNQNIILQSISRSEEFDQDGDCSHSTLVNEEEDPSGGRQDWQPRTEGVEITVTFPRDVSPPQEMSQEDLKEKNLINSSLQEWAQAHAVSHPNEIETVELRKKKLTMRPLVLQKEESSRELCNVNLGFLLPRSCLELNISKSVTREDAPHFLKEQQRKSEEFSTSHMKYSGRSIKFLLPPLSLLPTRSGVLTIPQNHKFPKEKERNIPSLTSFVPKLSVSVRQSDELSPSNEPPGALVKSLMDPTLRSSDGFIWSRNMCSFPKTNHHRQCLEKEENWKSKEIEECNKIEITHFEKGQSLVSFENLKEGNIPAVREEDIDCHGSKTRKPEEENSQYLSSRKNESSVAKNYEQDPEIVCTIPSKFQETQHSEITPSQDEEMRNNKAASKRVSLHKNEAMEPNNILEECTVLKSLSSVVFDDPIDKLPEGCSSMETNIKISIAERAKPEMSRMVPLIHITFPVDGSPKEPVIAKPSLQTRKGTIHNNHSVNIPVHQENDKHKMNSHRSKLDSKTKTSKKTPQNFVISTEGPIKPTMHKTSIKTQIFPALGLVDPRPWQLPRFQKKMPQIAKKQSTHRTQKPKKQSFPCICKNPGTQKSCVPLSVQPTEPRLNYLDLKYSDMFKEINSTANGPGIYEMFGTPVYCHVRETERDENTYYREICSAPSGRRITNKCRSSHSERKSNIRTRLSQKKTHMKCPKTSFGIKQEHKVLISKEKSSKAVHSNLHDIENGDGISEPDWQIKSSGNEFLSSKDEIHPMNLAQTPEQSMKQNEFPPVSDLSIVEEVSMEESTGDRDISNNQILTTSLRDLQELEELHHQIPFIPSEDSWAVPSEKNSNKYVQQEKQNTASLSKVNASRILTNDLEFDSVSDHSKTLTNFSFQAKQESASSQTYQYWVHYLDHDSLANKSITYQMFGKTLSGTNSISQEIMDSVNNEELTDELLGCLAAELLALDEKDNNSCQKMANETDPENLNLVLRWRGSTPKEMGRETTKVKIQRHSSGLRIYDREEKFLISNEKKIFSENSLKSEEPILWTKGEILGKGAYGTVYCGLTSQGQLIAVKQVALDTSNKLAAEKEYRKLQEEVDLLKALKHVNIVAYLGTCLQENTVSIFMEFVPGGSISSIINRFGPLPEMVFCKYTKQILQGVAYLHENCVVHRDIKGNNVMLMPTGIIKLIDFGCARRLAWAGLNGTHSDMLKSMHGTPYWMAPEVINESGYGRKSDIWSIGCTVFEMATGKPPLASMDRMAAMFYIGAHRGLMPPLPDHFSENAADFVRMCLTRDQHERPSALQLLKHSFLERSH

O=C(O)c1ccc(-c2coc3ncc(-c4ccccc4)cc23)cc1Cl [SGC-CAMKK2-1N (UNC-YL-83)]
remaining binding at 1 µM (YSK4): 77% | remaining binding at 1 µM [1]: 69%

From paper PMC9856672, “SGC-CAMKK2-1: A Chemical Probe for CAMKK2” (Cells, 2023)
